Data set [1] in a line: Glucose tolerance test in PDX UF mice. Type of data set: in vivo, NOD/SCID mice. The settings on record: 6 weeks after treatment, vs control. The procedure: After xenograft mice undergo intraperitoneal injection of doxercalciferol (300 ng/kg, 3 times per week) or saline for 6 weeks. Body weight is monitored weekly during doxercalciferol treatment. Six weeks after doxercalciferol treatment insulin resistance is assessed using GTT and then mice are anesthetized and blood is collected to measure liver enzyme and AMH levels, ovary tissue is removed for histological analysis, total RNA is extracted for sequencing, and tumor size is measured with a digital caliper.
Glucose tolerance testing is performed on PDX UF mice 6 weeks after doxercalciferol treatment. Mice are tested either without fasting or after fasting for 16 h (5 p.m. to 9 a.m.), with free access to drinking water, after which they receive an intra-peritoneal (i.p.) injection of D-glucose (2.0 g/kg body weight). Blood glucose level is measured at 0, 15, 30, 60, 90, and 120 min following glucose injection using a Bayer glucose monitor (Roche Diagnostics Corp, IN, USA).

For a further data set, the system named is H295R cells. The data set is described as follows: Androgen producing gene expression in H295R cells (qPCR). The following applies: 24 hours. Type of data set: cell-based, human. The procedure:
H295R cells are subcultured in T75 flasks for 24 hours. Cells are then treated for 24 hours with serum free basal media as a control or doxercalciferol at 1 nM, 10 nM, or 100 nM diluted in basal media (serum-free) at a 1:1 ratio. After the incubation period, cells are imaged and analyzed for morphology and cell count. Cells are then collected for analysis of steroidogenesis-related gene expression. Cell culture media are collected and used for testosterone quantification using ELISA based Testosterone Parameter Assay Kit (R&D system) per the manufacturer's protocol. The testosterone level is quantified using a multimode microplate reader system, Varioskan LUX Multimode Microplate Reader (Thermo Fisher).
RNA is extracted from H295R cells treated with doxercalciferol. RNA extraction is done using TRIzol (Invitrogen, USA) according to the manufacturer's instructions. The concentration and purity of the extracted RNA are checked using a NanoDrop spectrometer (Thermo Scientific, MA, USA). For qPCR of steroidogenesis related genes in H295R cells 1 μg of total RNA is reverse transcribed using RNA to cDNA EcoDry™ Premix (Double Primed) (Takara Bio USA Inc., CA, USA). The reaction mixture is incubated for 1 hour at 42° C.; incubation is stopped at 70° C. for 10 min. qPCR is performed using the CFX96 PCR instrument and SYBR Green Supermix (Bio-Rad, Hercules, CA, USA) with specific primers (RT^2 Profiler PCR Array for Human Adipogenesis, PAHS-049ZA, QIAGEN) to the target genes in a 20 μL final reaction volume. The delta-delta threshold cycle (ΔΔCt) method is used to calculate the fold change expression in mRNA level in the samples.
A general note: Quantitative PCR measures a nucleic acid by following its amplification.

The subject of a further data set is SW872 cells. As to the kind of experiment: Obesity related cytokine antibody array of SW872 secretomes. Type of data set: cell-based, human. The settings on record: SW872 secretome, 10 nM, 24 hours. The procedure: SW872 cells are subcultured in T75 flasks for 24 hours. Cells are then treated for 24 hours with serum free basal media as a control or doxercalciferol at 1 nM, 10 nM, or 100 nM diluted in basal media (serum-free). After the incubation period, cells are imaged and analyzed for morphology and cell count. Cells are then collected for analysis of adipogenesis-related gene expression and cell culture media are collected for analysis of obesity related cytokines. Cell culture media are collected from SW872 cells after 24 hours of 10 nM doxercalciferol treatment. The media is analyzed for obesity related cytokines using a membrane-based antibody array (Ray Biotech, GA, USA) per the manufacturer's protocol, and then quantified using a multimode microplate reader system, Varioskan LUX Multimode Microplate Reader (Thermo Fisher).

In data set [2] the test system is letrozole induced polycystic ovary syndrome (PCOS) mouse models. As to the kind of experiment: Breeding experiments in PCOS mice. Type of data set: in vivo, C57BL/6 mice. As for the experimental part: Five weeks after placebo or LTZ pellet implantation, mice undergo intraperitoneal injection of doxercalciferol (300 ng/kg) or saline 3 times per week for 6 weeks. Six weeks after doxercalciferol treatment, the mice are anesthetized and ovary, uterus, gonadal white fat, kidney, and liver tissue are collected. Each of these tissues are fixed in 4% paraformaldehyde for further histological analysis.
After doxercalciferol treatment, 6 mice per group from the PCOS experiments are randomly selected for the breeding experiment. One male C57BL/6 breeder mouse is used for every two female mice. The male and female mice are caged together for 10 days. Mating is determined by the presence of sperm plug in the vagina. The pregnancy rate, required time for pregnancy, average number of pups, total live and dead pups, and mouse pup weight and growth rate at birth and days 5 and 10 postpartum are measured.

Setting [3] is: PCOS mice, 300 ng/kg i.p. 3 times per week for 6 weeks.

Molecules are shown by their SMILES.

This note sets out measurements from patent publication US20240293337A1, “USE OF DOXERCALCIFEROL TO TREAT AND/OR PREVENT UTERINE FIBROIDS OR POLYCYSTIC OVARY SYNDROME” (priority 2023, published 2024).

Consider `C=C1/C(=C\C=C2/CCC[C@]3(C)[C@@H]([C@H](C)/C=C/[C@H](C)C(C)C)CC[C@@H]23)C[C@@H](O)C[C@@H]1O` [doxercalciferol], for which the fasting glucose levels entry in data set [1] (fasting 16 h) is “tends to lower”. In data set [1] (without fasting), the glucose levels entry is on record as “tends to lower”. Further, in the data set with H295R cells (1 nM), the CYP11A1 gene expression result was “not significantly changed” and the CYP17A1 gene expression entry is recorded as “significantly increased”. Moreover, in the data set with H295R cells (10 nM), the CYP11A1 gene expression entry is recorded as “significantly increased” and the CYP17A1 gene expression result is listed as “not significantly changed”. Also, in the data set on H295R cells (100 nM), the CYP11A1 gene expression entry was “significantly decreased” and the CYP17A1 gene expression entry was “significantly decreased”. In addition, in the data set on SW872 cells, the CCL5 cytokine production entry is recorded as “significantly downregulates”, the CCL18 cytokine production entry is recorded as “significantly downregulates”, the CXCL10 cytokine production entry is given as “significantly downregulates” and the MIF cytokine production result is “significantly downregulates”. For the same molecule, in the data set with SW872 cells, the TIMP-2 cytokine production result is listed as “significantly downregulates”, the “TNF RII cytokine production” value is given as “significantly downregulates” and the “TNF alpha cytokine production” value was “significantly downregulates”. In addition, in data set [2] (setting [3]), the “average number of live pups, vs control mice” value is given as “no significant difference”; the “average number of live pups, vs untreated PCOS” value is reported as “increased the average number of live pups”; the “required time for pregnancy after introduction to a potential mate” value is reported as “about 2 weeks”. The molecule further showed a pregnancy rate in data set [2] (PCOS mice, 300 ng/kg i.p. 3 times per week for 6 weeks (PCOS 20%, control 83.3%)) of 50%. In addition, the “total number of live pups, vs untreated PCOS” value in data set [2] (PCOS mice, 300 ng/kg i.p. 3 times per week for 6 weeks, not to the levels of control mice) is on record as “increases the total number of live pups”. Further, in data set [2] (pups of treated PCOS mice, 5 days postpartum), the “average weight of pups, vs control mice” value is “significantly lower”. Besides, the “average weight of pups, vs control and PCOS” value in data set [2] (pups of treated PCOS mice, 10 days postpartum) is given as “no significant difference”. For the same molecule, the “average weight of pups, vs control mice” value in data set [2] (pups of treated PCOS mice, at birth) is recorded as “significantly lower”. The “growth of pups, vs control and PCOS” value in data set [2] (pups of treated PCOS mice, at birth, 5 days and 10 days postpartum) is “no significant difference”.
